Experimental findings from US11945790B2 (ImmunoMolecular Therapeutics, Inc., priority 2020, dated 2024) are described below.

Each structure is given as a SMILES string.

The target in this test is HLA-DQ2 (Homo sapiens, UniProt P01909+P01920). In words: Inhibition of IL-2 secretion by TCR transductants stimulated by α-gliadin peptides presented by HLA-DQ2 expressing K562 cells (ELISA). Type of test: cell-based. The note with it: inhibition of IL-2 secretion at 200 uM; tested as trans racemate unless otherwise noted; lines naming several Examples = stereoisomer mixture of those Examples. As for the experimental part: Three commercially available analogues of the DQ2 binding molecules of the invention were tested for their ability to inhibit stimulation of T cell receptor (TCR) transductants in the presence of HLA-DQ2 expressing cells presenting known α-gliadin epitopes.
Chain of HLA-DQ2 (P01920 33-261 limits assumed, other chains not shown): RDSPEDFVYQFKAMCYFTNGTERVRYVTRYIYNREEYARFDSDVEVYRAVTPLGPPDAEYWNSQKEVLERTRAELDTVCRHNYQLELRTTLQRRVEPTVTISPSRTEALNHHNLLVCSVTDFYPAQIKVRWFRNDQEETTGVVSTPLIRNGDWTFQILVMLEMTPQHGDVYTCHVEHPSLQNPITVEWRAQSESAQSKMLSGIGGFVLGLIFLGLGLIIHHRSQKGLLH
Using a previously published in vitro assay (Ostrov D, et al. Methyldopa blocks MHC class II binding to disease specific antigens in autoimmune diabetes. J Clin Invest. 2018:128 (5)) the ability of these DQ2 binding analogues to inhibit interleukin-2 (IL-2) secretion by TCR transductants stimulated by α-gliadin peptides presented by HLA-DQ2 was determined. Individual TCR transductants (recognizing a I-gliadin or a II-gliadin) were cultured with a gliadin peptide plus the small molecule analogues in the presence of HLA-DQ2 expressing K562 cells serving as antigen presenting cells. TCR transductants cultured with no gliadin peptide served as the negative control, and incubation with an anti-CD3 antibody (eBioscience; clone 2C11) served as a positive control for the TCR transductant. Secreted IL-2 in the culture supernatant was measured using a highly sensitive enzyme-linked immunosorbent assay (ELISA). […] Assays for effects on cell viability and for specificity, assayed in the absence of gliadin peptide or in the presence of a stimulating anti-CD3 antibody, were performed. Unless otherwise noted, the stereochemistry shown below represents the relative configuration. Further, unless otherwise noted, compounds were tested as the trans racemate.
Take `O=C(CSC1CCCC1)N1CCN(C(=O)[C@H]2C[C@@H]2c2ccccc2)CC1` [Example 13, 2-(Cyclopentylthio)-1-(4-((1S,2S)-2-phenylcyclopropanecarbonyl)piperazin-1-yl)ethanone]: the “% Inh at 200 uM” value is “A (A=≥75%)”.
In the case of `O=C(CSC1CCCC1)N1CCN(C(=O)C2CC2c2cccs2)CC1` (stereo not shown) [Example 14] it was “A (A=≥75%)”; in that of `Cc1noc(C)c1CCC(=O)N1CCN(C(=O)C2CC2c2ccc3c(c2)OCO3)CC1` (stereo not shown) [Example 15], “C (C=25-49%)”.
For `O=C(CCS(=O)(=O)c1ccccc1)N1CCN(C(=O)C2CC2c2ccc3c(c2)OCO3)CC1` (stereo not shown) [Example 16] the value was “A (A=≥75%)”; for `CCOc1ccccc1C(=O)N1CCN(C(=O)C2CC2c2ccc3c(c2)OCO3)CC1` (stereo not shown) [Example 17], “C (C=25-49%)”; for `O=C(c1cc(Cl)ccc1Cl)N1CCN(C(=O)C2CC2c2ccc3c(c2)OCO3)CC1` (stereo not shown) [Example 18], “A (A=≥75%)”.
For `CSc1ccccc1C(=O)N1CCN(C(=O)C2CC2c2ccc3c(c2)OCO3)CC1` (stereo not shown) [Example 19] the value was “C (C=25-49%)”; for `CN(C)c1cccc(C(=O)N2CCN(C(=O)C3CC3c3ccc4c(c3)OCO4)CC2)c1` (stereo not shown) [Example 20], “B (B=50-74%)”; for `O=C(c1ccccc1C(F)(F)F)N1CCN(C(=O)C2CC2c2ccc3c(c2)OCO3)CC1` (stereo not shown) [Example 21], “C (C=25-49%)”.
On to `O=C(c1ccccc1F)N1CCN(C(=O)C2CC2c2ccc3c(c2)OCO3)CC1` (stereo not shown) [Example 22], for which the “% Inh at 200 uM” value is given as “B (B=50-74%)”.
In the case of `O=C(Cc1c(F)cccc1Cl)N1CCN(C(=O)C2CC2c2ccc3c(c2)OCO3)CC1` (stereo not shown) [Example 23] it was “C (C=25-49%)”; in that of `O=C(Cc1cccs1)N1CCN(C(=O)C2CC2c2ccc3c(c2)OCO3)CC1` (stereo not shown) [Example 24], “A (A=≥75%)”; in that of `O=C(C1CCCC1)N1CCN(C(=O)C2CC2c2ccc3c(c2)OCO3)CC1` (stereo not shown) [Example 25], “A (A=≥75%)”.
In the case of `CS(=O)(=O)N1CCC(C(=O)N2CCN(C(=O)C3CC3c3ccc4c(c3)OCO4)CC2)CC1` (stereo not shown) [Example 26] it was “C (C=25-49%)”; in that of `COc1cccc([C@H]2C[C@@H]2C(=O)N2CCN(C(=O)CSC3CCCC3)CC2)c1` [Example 27], “B (B=50-74%)”; in that of `COc1ccc([C@H]2C[C@@H]2C(=O)N2CCN(C(=O)CSC3CCCC3)CC2)cc1` [Example 28], “B (B=50-74%)”.
For `O=C(CSC1CCCC1)N1CCN(C(=O)[C@H]2C[C@@H]2c2cccc(O)c2)CC1` [Example 29] the value was “B (B=50-74%)”; for `O=C(CSC1CCCC1)N1CCN(C(=O)[C@H]2C[C@@H]2c2ccc(O)cc2)CC1` [Example 30], “D (D=0-24%)”; for `N#Cc1cccc([C@H]2C[C@@H]2C(=O)N2CCN(C(=O)CSC3CCCC3)CC2)c1` [Example 31], “C (C=25-49%)”.
Take `O=C(CSC1CCCC1)N1CCN(C(=O)[C@H]2C[C@@H]2c2cccc(Cl)c2)CC1` [Example 32]: the “% Inh at 200 uM” value is on record as “B (B=50-74%)”.
With `O=C(CSC1CCCC1)N1CCN(C(=O)[C@@H]2C[C@H]2c2ccccc2F)CC1` [Example 33], the “% Inh at 200 uM” value is listed as “B (B=50-74%)”.
Take `COc1ccccc1[C@H]1C[C@@H]1C(=O)N1CCN(C(=O)CSC2CCCC2)CC1` [Example 34]: the “% Inh at 200 uM” value was “B (B=50-74%)”.
In the case of `O=C(CSC1CCCC1)N1CCN(C(=O)[C@H]2C[C@@H]2c2ccc(F)c(F)c2)CC1` [Example 35] it was “A (A=≥75%)”; in that of `O=C(CSC1CCCC1)N1CCN(C(=O)[C@H]2C[C@@H]2c2ccccc2Cl)CC1` [Example 36], “A (A=≥75%)”.
For `O=C(CSC1CCCC1)N1CCN(C(=O)[C@H]2C[C@@H]2c2ccccc2O)CC1` [Example 37] the value was “B (B=50-74%)”; for `O=C(COC1CCCCC1)N1CCN(C(=O)C2CC2c2ccccc2)CC1` (stereo not drawn) [Example 40, 2-(Cyclohexyloxy)-1-(4-((trans-2-phenylcyclopropanecarbonyl)-piperazin-1-yl)ethanone], “B (B=50-74%)”; for `O=C(CSC1CCCCC1)N1CCN(C(=O)[C@@H]2C[C@H]2c2ccccc2)CC1` [Example 41, 2-(Cyclohexylthio)-1-(4-((1R, 2R)-2-phenylcyclopropane-1-carbonyl)piperazin-1-yl) ethan-1-one], “B (B=50-74%)”.
In the case of `CC(C)SCC(=O)N1CCN(C(=O)[C@@H]2C[C@H]2c2ccccc2)CC1` [Example 45] it was “C (C=25-49%)”.
Take `Cc1cccc(SCC(=O)N2CCN(C(=O)[C@@H]3C[C@H]3c3ccccc3)CC2)c1` [Example 51]: the “% Inh at 200 uM” value is “A (A=≥75%)”.
For `Cc1ccc(SCC(=O)N2CCN(C(=O)[C@@H]3C[C@H]3c3ccccc3)CC2)cc1` [Example 53] the value was “B (B=50-74%)”.
For `COc1cccc(SCC(=O)N2CCN(C(=O)[C@@H]3C[C@H]3c3ccccc3)CC2)c1` [Example 62] the value was “C (C=25-49%)”; for `COc1ccccc1SCC(=O)N1CCN(C(=O)[C@@H]2C[C@H]2c2ccccc2)CC1` [Example 63], “B (B=50-74%)”.
In the case of `O=C(COC1CCCC1)N1CCN(C(=O)[C@@H]2C[C@H]2c2ccccc2)CC1` [Example 64] it was “B (B=50-74%)”.
Consider `CC1(c2ccccc2O)CC1C(=O)N1CCN(C(=O)CSC2CCCC2)CC1` (stereo not shown) [Example 67], for which the “% Inh at 200 uM” value is “C (C=25-49%)”.
As for `O=C(CSC1CCCC1)N1CCN(C(=O)[C@@H]2C[C@H]2c2ccc(F)cc2)CC1` [Example 68], the “% Inh at 200 uM” value was “C (C=25-49%)”.
For `Cc1ccc(SCC(=O)N2CCN(C(=O)[C@@H]3C[C@H]3c3ccccc3)CC2)c(C)c1` [Example 70] the value was “A (A=≥75%)”.
Regarding `NC(=O)c1ccccc1SCC(=O)N1CCN(C(=O)[C@@H]2C[C@H]2c2ccccc2)CC1` [Example 73], the “% Inh at 200 uM” value is on record as “C (C=25-49%)”.
In the case of `O=CNc1ccc(SCC(=O)N2CCN(C(=O)[C@@H]3C[C@H]3c3ccccc3)CC2)cc1` [Example 74] it was “B (B=50-74%)”.
For `COc1ccc(SCC(=O)N2CCN(C(=O)[C@@H]3C[C@H]3c3ccccc3)CC2)cc1` [Example 75] the value was “B (B=50-74%)”; for `O=C(CSc1ccc(O)cc1)N1CCN(C(=O)[C@@H]2C[C@H]2c2ccccc2)CC1` [Example 76], “C (C=25-49%)”; for `O=C(C[S+]([O-])C1CCCC1)N1CCN(C(=O)C2C[C@@H]2c2ccccc2)CC1` (stereo partly shown) [Example 80], “B (B=50-74%)”.
For `O=C(CNC1CCCC1)N1CCN(C(=O)[C@H]2CC2c2ccccc2)CC1` (stereo partly shown) [Example 81] the value was “A (A=≥75%)”; for `CN(CC(=O)N1CCN(C(=O)[C@H]2CC2c2ccccc2)CC1)C1CCCC1` (stereo partly shown) [Example 82], “B (B=50-74%)”.
Take `O=C(CN(C(=O)OCc1ccccc1)C1CCCC1)N1CCN(C(=O)[C@@H]2CC2c2ccccc2)CC1` (stereo partly shown) [Example 83]: the “% Inh at 200 uM” value was “A (A=≥75%)”.
In the case of `O=CNc1ccccc1SCC(=O)N1CCN(C(=O)[C@@H]2C[C@H]2c2ccccc2)CC1` [Example 86] it was “C (C=25-49%)”; in that of `O=C(CSc1cccc(O)c1)N1CCN(C(=O)[C@@H]2C[C@H]2c2ccccc2)CC1` [Example 87], “C (C=25-49%)”; in that of `O=C(CSc1ccccc1O)N1CCN(C(=O)[C@@H]2C[C@H]2c2ccccc2)CC1` [Example 88], “B (B=50-74%)”.
In the case of `NC(=O)c1ccc(OCC(=O)N2CCN(C(=O)[C@@H]3C[C@H]3c3ccccc3)CC2)cc1` [Example 89] it was “C (C=25-49%)”; in that of `NC(=O)c1ccccc1OCC(=O)N1CCN(C(=O)[C@@H]2C[C@H]2c2ccccc2)CC1` [Example 90], “B (B=50-74%)”.
In the case of `NC(=O)c1cccc(OCC(=O)N2CCN(C(=O)[C@@H]3C[C@H]3c3ccccc3)CC2)c1` [Example 91] it was “B (B=50-74%)”.
Turning to `O=CNc1ccccc1OCC(=O)N1CCN(C(=O)[C@@H]2C[C@H]2c2ccccc2)CC1` [Example 93], the “% Inh at 200 uM” value is on record as “B (B=50-74%)”.
In the case of `O=CNc1cccc(OCC(=O)N2CCN(C(=O)[C@@H]3C[C@H]3c3ccccc3)CC2)c1` [Example 94] it was “C (C=25-49%)”; in that of `O=C(COc1ccc(O)cc1)N1CCN(C(=O)[C@@H]2C[C@H]2c2ccccc2)CC1` [Example 95], “C (C=25-49%)”.
In the case of `O=C(COc1cccc(O)c1)N1CCN(C(=O)[C@@H]2C[C@H]2c2ccccc2)CC1` [Example 96] it was “B (B=50-74%)”.
For `O=C(O)c1ccccc1OCC(=O)N1CCN(C(=O)[C@@H]2C[C@H]2c2ccccc2)CC1` [Example 97] the value was “C (C=25-49%)”; for `O=C(COc1ccccc1F)N1CCN(C(=O)[C@@H]2C[C@H]2c2ccccc2)CC1` [Example 98], “B (B=50-74%)”.
With `O=C(COc1cccc(F)c1)N1CCN(C(=O)[C@@H]2C[C@H]2c2ccccc2)CC1` [Example 99], the “% Inh at 200 uM” value is listed as “B (B=50-74%)”.
In the case of `COC(=O)c1ccccc1OCC(=O)N1CCN(C(=O)[C@@H]2C[C@H]2c2ccccc2)CC1` [Example 100] it was “C (C=25-49%)”.
